Measurements taken from patent publication US9815787B2, “Sulfonamide derivative or pharmaceutically acceptable acid addition salt thereof” (UNIVERSITY OF TSUKUBA, priority 2013, dated 2017).
pEC50: −log10 of the molar value.

Target: T1, OX2R (Homo sapiens, UniProt O43614)
T1 construct: expressed in transfected cells; host or cells: CHO (Chinese hamster ovary) cells constitutively expressing the OX2R gene and NFAT-luciferase (CHOOX2R)
T1 sequence (O43614 1-444): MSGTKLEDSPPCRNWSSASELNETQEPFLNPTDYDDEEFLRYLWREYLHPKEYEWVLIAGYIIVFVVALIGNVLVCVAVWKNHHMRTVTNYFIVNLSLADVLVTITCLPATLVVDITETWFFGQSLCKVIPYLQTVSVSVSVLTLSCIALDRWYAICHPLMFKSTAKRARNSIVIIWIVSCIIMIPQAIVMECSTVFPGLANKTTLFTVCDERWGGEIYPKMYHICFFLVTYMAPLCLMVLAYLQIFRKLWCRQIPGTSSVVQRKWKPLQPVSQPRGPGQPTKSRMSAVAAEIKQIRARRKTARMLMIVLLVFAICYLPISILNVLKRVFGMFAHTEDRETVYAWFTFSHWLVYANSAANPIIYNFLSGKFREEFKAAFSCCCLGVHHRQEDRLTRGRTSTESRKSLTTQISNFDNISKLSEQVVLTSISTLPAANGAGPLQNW
Experiment: Evaluation of agonist activity against OX2R (CHOOX2R cells, Fura2AM fluorescence, FDSS3000)
Type: cell-based
Experimental: Evaluation of Agonist Activity Against OX2R
NFAT-luciferase gene and OX2R gene were each constitutively expressed in CHO cell, which is a cell line derived from Chinese hamster ovary to establish a cell line (CHOOX2R). The cells thereof were sown on a 96 well plate at 10000 cells/well, and cultured in a 5% FBS-added DMEM medium for 48 hr. […] After washing, HEPES buffer (75 μL) was added, a test compound solution (25 μL) was added, and changes in the fluorescence intensity were measured by FDSS3000 (Hamamatsu Photonics K.K.). The test compound was dissolved in DMSO (final concentration of DMSO was 1%), and diluted with HEPES buffer to a final concentration of 0.1 μM, 1.0 μM or 10 μM.

[1] = test compound 0.1 μM; relative to orexin-A as full agonist (100%); CHOOX2R cells
[2] = test compound 1.0 μM; relative to orexin-A as full agonist (100%); CHOOX2R cells
[3] = test compound 10 μM; relative to orexin-A as full agonist (100%); CHOOX2R cells
[4] = test compound 0.1 μM; CHOOX2R cells; relative to orexin-A as full agonist (100%)
[5] = test compound 1.0 μM; CHOOX2R cells; relative to orexin-A as full agonist (100%)
[6] = test compound 10 μM; CHOOX2R cells; relative to orexin-A as full agonist (100%)

SMILES | Response (0.1 μM (%)) [1] | Response (1.0 μM (%)) [2] | Response (10 μM (%)) [3] | Response (0.1 μM (%)) [4] | Response (1.0 μM (%)) [5] | Response (10 μM (%)) [6] | pEC50 (OX2R agonist activity; CHOOX2R cells) | Emax (conversion with orexin-A as full agonist (maximum agonist activity 100%))
COc1ccccc1C(=O)NCCNc1cccc(NS(=O)(=O)c2cc(-c3c(F)cccc3OC)ccc2OC)c1 [Example 23, N-(2-((3-(2′-fluoro-4,6′-dimethoxy-[1,1′-biphenyl]-3-ylsulfonamide)phenyl)amino)ethyl)-2-methoxybenzamide] | <5% | <5% | <5% |  |  |  |  | 
COc1cccc(C(=O)NCCNc2cccc(NS(=O)(=O)c3cc(-c4cccc(C(=O)N5CCCC5)c4)ccc3OC)c2)c1 [Example 86, 3-methoxy-N-(2-((3-(4-methoxy-3′-(pyrrolidine-1-carbonyl)-[1,1′-biphenyl]-3-ylsulfonamido)phenyl)amino)ethyl)benzamide] |  |  |  | 10% | 89% | 81% |  | 
COc1cccc(C(=O)NCCNc2cccc(NS(=O)(=O)c3cc(-c4cc(Cl)cc(Cl)c4)ccc3OC)c2)c1 [Example 28, N-(2-((3-(3′,5′-dichloro-4-methoxy-[1,1′-biphenyl]-3-ylsulfonamide)phenyl)amino)ethyl)-3-methoxybenzamide] | <5% | <5% | <5% |  |  |  |  | 
COc1ccc(-c2cccc(C(=O)N(C)C)c2)cc1S(=O)(=O)Nc1cccc(NCCNC(=O)c2cccnc2Cl)c1 [Example 50, 2-chloro-N-(2-((3-(3′-(dimethylcarbamoyl)-4-methoxy-[1,1′-biphenyl]-3-ylsulfonamido)phenyl)amino)ethyl)nicotinamide] |  |  |  | <5% | 71% | 76% |  | 
COc1ccc(-c2cccc(C(=O)N3CCCCC3)c2)cc1S(=O)(=O)Nc1cccc(NCCNC(=O)c2ccccc2F)c1 [Example 90, 2-fluoro-N-(2-((3-(4-methoxy-3′-(piperidine-1-carbonyl)-[1,1′-biphenyl]-3-ylsulfonamido)phenyl)amino)ethyl)benzamide] |  |  |  | 51% | 68% | 88% |  | 
COc1ccc(-c2ccccc2F)cc1S(=O)(=O)Nc1cccc(NCCNC(=O)c2ccc(Cl)cc2)c1 [Example 9, 4-chloro-N-(2-((3-(2′-fluoro-4-methoxy-[1,1′-biphenyl]-3-ylsulfonamide)phenyl)amino)ethyl)benzamide] | <5% | <5% | <5% |  |  |  |  | 
COc1cncc(-c2ccc(OC)c(S(=O)(=O)Nc3cccc(NCCNC(=O)c4ccccc4OC)c3)c2)c1 [Example 97, 2-methoxy-N-(2-((3-(2-methoxy-5-(5-methoxypyridin-3-yl)phenylsulfonamido)phenyl)amino)ethyl)benzamide] |  |  |  | <5% | 12% | 37% |  | 
COc1ccccc1C(=O)NCCNc1cccc(NS(=O)(=O)c2cc(-c3cccc(C(=O)NCCO)c3)ccc2OC)c1 [Example 74, N-(2-hydroxyethyl)-4′-methoxy-3′-(N-(3-((2-(2-methoxybenzamido)ethyl)amino)phenyl)sulfamoyl)-[1,1′-biphenyl]-3-carboxamide] |  |  |  | <5% | 51% | 92% |  | 
COc1ccc(-c2cccc(C(=O)N3CCCCC3)c2)cc1S(=O)(=O)Nc1cccc(NCCNC(=O)c2cccnc2OC)c1 [Example 91, 2-methoxy-N-(2-((3-(4-methoxy-3′-(piperidine-1-carbonyl)-[1,1′-biphenyl]-3-ylsulfonamido)phenyl)amino)ethyl)nicotinamide] |  |  |  | 42% | 90% | 80% |  | 
COc1cccc(C(=O)NCCNc2cccc(NS(=O)(=O)c3cc(-c4cc(F)ccc4F)ccc3OC)c2)c1 [Example 20, N-(2-((3-(2′,5′-difluoro-4-methoxy-[1,1′-biphenyl]-3-ylsulfonamide)phenyl)amino)ethyl)-3-methoxybenzamide] | <5% | 13% | 180% |  |  |  |  | 
COc1ccc(-c2ccccc2F)cc1S(=O)(=O)Nc1cccc(NCCNC(=O)c2cccc(Cl)c2)c1 [Example 8, 3-chloro-N-(2-((3-(2′-fluoro-4-methoxy-[1,1′-biphenyl]-3-ylsulfonamide)phenyl)amino)ethyl)benzamide] | <5% | 9% | 46% |  |  |  |  | 
COc1ccc(-c2cccc(C(=O)N(C)C)c2)cc1S(=O)(=O)Nc1cccc(NCCNC(=O)c2ccc(Cl)s2)c1 [Example 61, 5-chloro-N-(2-((3-(3′-(dimethylcarbamoyl)-4-methoxy-[1,1′-biphenyl]-3-ylsulfonamido)phenyl)amino)ethyl)thiophene-2-carboxamide] |  |  |  | <5% | 18% | 69% |  | 
COc1ccccc1C(=O)NCCNc1cccc(NS(=O)(=O)c2cc(-c3cccc(C(=O)NCC(F)(F)F)c3)ccc2OC)c1 [Example 78, 4′-methoxy-3′-(N-(3-((2-(2-methoxybenzamido)ethyl)amino)phenyl)sulfamoyl)-N-(2,2,2-trifluoroethyl)-[1,1′-biphenyl]-3-carboxamide] |  |  |  | <5% | 33% | 49% |  | 
COc1cc(C)c(-c2cccc(C(=O)N(C)C)c2)cc1S(=O)(=O)Nc1cccc(NCCNC(=O)c2sccc2Cl)c1 [Example 105, 3-chloro-N-(2-((3-(3′-(dimethylcarbamoyl)-4-methoxy-6-methyl-[1,1′-biphenyl]-3-ylsulfonamido)phenyl)amino)ethyl)thiophene-2-carboxamide] | 78% | 84% | 79% |  |  |  |  | 
COc1ccccc1C(=O)NCCNc1cccc(NS(=O)(=O)c2cc(-c3cccc(C(=O)N4CCCC4)c3)ccc2OC)c1 [Example 75, 2-methoxy-N-(2-((3-(4-methoxy-3′-(pyrrolidine-1-carbonyl)-1-[1,1′-biphenyl]-3-ylsulfonamide)phenyl)amino)ethyl)benzamide] |  |  |  | 49% | 87% | 76% | 7.11 | 87%
COc1ccc(-c2ccccc2F)cc1S(=O)(=O)Nc1cccc(NCCNC(=O)c2cccnc2)c1 [Example 15, N-(2-((3-(2′-fluoro-4-methoxy-[1,1′-biphenyl]-3-ylsulfonamide)phenyl)amino)ethyl)nicotineamide] | <5% | <5% | 6% |  |  |  |  | 
COc1ccccc1C(=O)NCCNc1cccc(NS(=O)(=O)c2cc(-c3cccc(C(=O)N(C)C)c3)ccc2C)c1 [Example 106, 3′-(N-(3-((2-(2-methoxybenzamido)ethyl)amino)phenyl)sulfamoyl)-N,N,4′-trimethyl-[1,1′-biphenyl]-3-carboxamide] | <5% | 27% | 39% |  |  |  |  | 
COc1ccc(-c2cccc(C(=O)N(C)C)c2)cc1S(=O)(=O)Nc1cccc(NCCNC(=O)c2nccn2C)c1 [Example 63, N-(2-((3-(3′-(dimethylcarbamoyl)-4-methoxy-[1,1′-biphenyl]-3-ylsulfonamido)phenyl)amino)ethyl)-1-methyl-1H-imidazole-2-carboxamide] |  |  |  | <5% | 81% | 82% |  | 
COc1ccccc1C(=O)NCCNc1cccc(NS(=O)(=O)c2cc(-c3cccc(CO)c3)ccc2OC)c1 [Example 39, N-(2-((3-(3′-(hydroxymethyl)-4-methoxy-[1,1′-biphenyl]-3-ylsulfonamide)phenyl)amino)ethyl)-2-methoxybenzamide] |  |  |  | <5% | 27% | 102% |  | 
